Source: ChEMBL document CHEMBL1201862, “PubChem BioAssay data set” (2004)
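Cultured in 96-well plates, cells were exposed to test compound for 48 hours across five concentrations. Here, GI50 denotes the concentration required for 50% inhibition of growth.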 Active and inactive are the calls of the source. No stated cut-off is given here; in the data, active = GI50 up to about 1.1 µM and inactive = higher.

What was measured:
Experiment in all cases: growth of human tumour cells (NCI), 48 h
[1] = system: SW-620
[2] = system: LOX IMVI
[3] = system: HOP-62
[4] = system: OVCAR-5
[5] = system: UO-31
[6] = system: UACC-62
[7] = system: HT-29
[8] = system: ACHN
[9] = system: OVCAR-3
[10] = system: RXF 393
[11] = system: TK-10
[12] = system: 786-0
[13] = system: NCI-H226
[14] = system: RPMI-8226
[15] = system: OVCAR-4
[16] = system: SN12C
[17] = system: SNB-19
[18] = system: SR

Row | SMILES | GI50 [1] | GI50 [2] | GI50 [3] | GI50 [4] | GI50 [5] | GI50 [6] | GI50 [7] | GI50 [8] | GI50 [9] | GI50 [10] | GI50 [11] | GI50 [12] | GI50 [13] | GI50 [14] | GI50 [15] | GI50 [16] | GI50 [17] | GI50 [18]
1 | C/C(CC(=O)Nc1ccc(C)c(C)c1)=N\NC(N)=S | > 100 µM (inactive) | > 100 µM (inactive) | > 100 µM (inactive) | > 100 µM (inactive) | > 100 µM (inactive) | > 100 µM (inactive) | > 100 µM (inactive) | > 100 µM (inactive) | > 100 µM (inactive) | > 100 µM (inactive) | > 100 µM (inactive) | > 100 µM (inactive) | > 100 µM (inactive) | > 100 µM (inactive) |  |  |  | 
2 | Cc1ccc(S(=O)(=O)c2ccccc2[N+](=O)[O-])cc1 | > 100 µM (inactive) |  | 92.3 µM (inactive) | > 100 µM (inactive) | 81.8 µM (inactive) | 37.4 µM (inactive) | > 100 µM (inactive) | > 100 µM (inactive) | > 100 µM (inactive) | 37.3 µM (inactive) | > 100 µM (inactive) | > 100 µM (inactive) | > 100 µM (inactive) | 80.7 µM (inactive) | 86.9 µM (inactive) |  |  | 
3 | C=C(C(=C)N1N=NC2C3CCC(C3)C21)N1N=NC2C3CCC(C3)C21 (configuration not stated) | > 100 µM (inactive) | 68.5 µM (inactive) | > 100 µM (inactive) | > 100 µM (inactive) | > 100 µM (inactive) | > 100 µM (inactive) | > 100 µM (inactive) | > 100 µM (inactive) | > 100 µM (inactive) | > 100 µM (inactive) | > 100 µM (inactive) | > 100 µM (inactive) |  |  | > 100 µM (inactive) | > 100 µM (inactive) | > 100 µM (inactive) | 38.7 µM (inactive)
4 | O=C1OC(O)C(Oc2ccc(Cl)cc2)=C1Cl (configuration not stated) | > 100 µM (inactive) | > 100 µM (inactive) | > 100 µM (inactive) | > 100 µM (inactive) | > 100 µM (inactive) | > 100 µM (inactive) | > 100 µM (inactive) | > 100 µM (inactive) | > 100 µM (inactive) | > 100 µM (inactive) | > 100 µM (inactive) | > 100 µM (inactive) | > 100 µM (inactive) | > 100 µM (inactive) | > 100 µM (inactive) | > 100 µM (inactive) | > 100 µM (inactive) | 
5 | O=C1/C(=C/c2ccccc2)CN(C(=O)OCC(Cl)(Cl)Cl)C/C1=C\c1ccccc1 | 1.09 µM (active) | 0.792 µM (active) |  | 5.52 µM (inactive) | 3.52 µM (inactive) | 2.71 µM (inactive) | 1.6 µM (inactive) | 1.98 µM (inactive) | 4.19 µM (inactive) | 1.68 µM (inactive) | 4.46 µM (inactive) | 2.14 µM (inactive) |  | 0.0394 µM (active) |  | 1.84 µM (inactive) | 3.27 µM (inactive) | 2.07 µM (inactive)
6 | CCOC(=O)c1cn2c([nH]c3ccccc32)c(C#N)c1=O | 17.1 µM (inactive) | 25.7 µM (inactive) | > 100 µM (inactive) | > 100 µM (inactive) | 98.2 µM (inactive) | > 100 µM (inactive) | > 100 µM (inactive) | > 100 µM (inactive) | > 100 µM (inactive) | > 100 µM (inactive) | > 100 µM (inactive) | > 100 µM (inactive) | > 100 µM (inactive) |  | > 100 µM (inactive) | > 100 µM (inactive) | > 100 µM (inactive) | > 100 µM (inactive)
7 | CCOc1ccc(NC(=O)CC2SC(Nc3ccc(C)cc3)=NC2=O)cc1 (configuration not stated) | > 100 µM (inactive) | > 100 µM (inactive) | > 100 µM (inactive) | > 100 µM (inactive) | > 100 µM (inactive) | > 100 µM (inactive) | > 100 µM (inactive) | > 100 µM (inactive) | > 100 µM (inactive) | > 100 µM (inactive) | > 100 µM (inactive) | > 100 µM (inactive) |  |  | > 100 µM (inactive) | > 100 µM (inactive) | > 100 µM (inactive) | 50.9 µM (inactive)
8 | CCCN1CN(C(C(=O)N[C@@H]2C(=O)N3C2SC(C)(C)C3C(=O)O)c2ccc(O)cc2)CSC1=S (some centres not stated) |  | 97.9 µM (inactive) | > 100 µM (inactive) | > 100 µM (inactive) | > 100 µM (inactive) | > 100 µM (inactive) | > 100 µM (inactive) | > 100 µM (inactive) | 23.6 µM (inactive) |  | > 100 µM (inactive) | > 100 µM (inactive) |  | 62.1 µM (inactive) | > 100 µM (inactive) | > 100 µM (inactive) | > 100 µM (inactive) | 
9 | COC1CC(n2cnc3c(N)ncnc32)OC1CO (configuration not stated) | > 100 µM (inactive) |  | > 100 µM (inactive) | > 100 µM (inactive) | > 100 µM (inactive) | > 100 µM (inactive) | > 100 µM (inactive) | > 100 µM (inactive) | > 100 µM (inactive) |  | > 100 µM (inactive) | > 100 µM (inactive) | > 100 µM (inactive) | > 100 µM (inactive) | > 100 µM (inactive) |  | > 100 µM (inactive) | > 100 µM (inactive)
10 | Clc1ccccc1C1=NN(c2ccccc2)C2c3cc(Br)ccc3OCC12 (configuration not stated) | > 100 µM (inactive) | > 10 µM (inactive) | > 100 µM (inactive) | > 100 µM (inactive) | > 100 µM (inactive) |  | > 100 µM (inactive) | > 100 µM (inactive) | > 100 µM (inactive) | > 100 µM (inactive) | > 100 µM (inactive) | > 100 µM (inactive) |  | 67.9 µM (inactive) |  |  | > 100 µM (inactive) | 
11 | [O-][n+]1c(-c2ccccc2)c2nc3ccccc3nc2c2ccccc21 | > 100 µM (inactive) | > 100 µM (inactive) | > 100 µM (inactive) | > 100 µM (inactive) | > 100 µM (inactive) | > 100 µM (inactive) | > 100 µM (inactive) | > 100 µM (inactive) | > 100 µM (inactive) | > 100 µM (inactive) | > 100 µM (inactive) | > 100 µM (inactive) | > 100 µM (inactive) | > 100 µM (inactive) | 5 µM (inactive) | > 100 µM (inactive) | > 100 µM (inactive) | 
12 | CN(C)CC/[N+]([O-])=C(/c1ccccc1)C12CC3CC(CC(C3)C1)C2 |  | 15.3 µM (inactive) | 14.8 µM (inactive) | 17.7 µM (inactive) | 11.9 µM (inactive) | 14 µM (inactive) | 11 µM (inactive) | 16.3 µM (inactive) | 14.7 µM (inactive) | 18.2 µM (inactive) | 16.7 µM (inactive) | 13.5 µM (inactive) | 12.5 µM (inactive) | 17.7 µM (inactive) |  | 17.2 µM (inactive) | 18.2 µM (inactive) | 16.2 µM (inactive)
13 | CN(/C(=N\O)c1ccccc1)c1ccccc1 | 32.2 µM (inactive) | 22.6 µM (inactive) | 22.9 µM (inactive) | 88.9 µM (inactive) | 25.5 µM (inactive) |  | 30.5 µM (inactive) |  | 21.7 µM (inactive) |  |  | 21.7 µM (inactive) | 21.3 µM (inactive) |  | 33.7 µM (inactive) | 32.1 µM (inactive) | 27.9 µM (inactive) | 25 µM (inactive)
14 | Fc1ccc2c(c1)SC1Oc3ccccc3-c3c1c-2nn3-c1ccccc1 (configuration not stated) | > 100 µM (inactive) | > 100 µM (inactive) | 30.4 µM (inactive) | > 100 µM (inactive) | > 100 µM (inactive) |  | > 100 µM (inactive) | > 100 µM (inactive) | > 100 µM (inactive) | 46.9 µM (inactive) | > 100 µM (inactive) | > 100 µM (inactive) |  | > 100 µM (inactive) |  |  |  | 
15 | CCCSS[C@H]1NC(=O)[C@H]1NC(=O)COc1ccccc1 | 5.74 µM (inactive) | 16.4 µM (inactive) | > 100 µM (inactive) | 59 µM (inactive) | 32.5 µM (inactive) | 17.9 µM (inactive) | 19.8 µM (inactive) | 16.6 µM (inactive) | 17.3 µM (inactive) | 16.1 µM (inactive) | 27.9 µM (inactive) | 17.4 µM (inactive) |  | 14 µM (inactive) | 17.3 µM (inactive) | 15.1 µM (inactive) | > 100 µM (inactive) | 3.16 µM (inactive)
16 | Nc1ncnc2c1N=CN(Oc1ccccc1)N2 | > 100 µM (inactive) |  |  | > 100 µM (inactive) |  | > 100 µM (inactive) | > 100 µM (inactive) | > 100 µM (inactive) | > 100 µM (inactive) | > 100 µM (inactive) | > 100 µM (inactive) | > 100 µM (inactive) | > 100 µM (inactive) | > 100 µM (inactive) | > 100 µM (inactive) | 21.5 µM (inactive) |  | > 100 µM (inactive)
17 | Cc1cc(N(CCC#N)CCC#N)ccc1/C=C(\NC(=O)/C=C/c1ccccc1)C(=O)N=[N+]=[N-] | > 100 µM (inactive) | > 100 µM (inactive) | 32.1 µM (inactive) | > 100 µM (inactive) | > 100 µM (inactive) | > 100 µM (inactive) | > 100 µM (inactive) | > 100 µM (inactive) | 7.01 µM (inactive) | 34.8 µM (inactive) | > 100 µM (inactive) | 37.5 µM (inactive) | > 100 µM (inactive) | > 100 µM (inactive) |  | > 100 µM (inactive) | 77.8 µM (inactive) | 
18 | O=C1CCCC/C1=C1\C(=O)Nc2cc(F)ccc21 | 35.3 µM (inactive) | > 100 µM (inactive) | > 100 µM (inactive) | > 100 µM (inactive) | > 100 µM (inactive) | > 100 µM (inactive) | > 100 µM (inactive) | > 100 µM (inactive) |  | > 100 µM (inactive) | > 100 µM (inactive) | > 100 µM (inactive) | > 100 µM (inactive) | > 100 µM (inactive) | > 100 µM (inactive) | > 100 µM (inactive) | > 100 µM (inactive) | 
